Test results: ChEMBL document CHEMBL3885861, “Open TG-GATES”

Species: Rattus norvegicus
Assay: Open TG-GATES - Regimen: Daily Repeat
Assay type: toxicity, organism-based, Sprague-Dawley
Set-up: regimen Daily Repeat, gender Male, age 6 weeks
Conditions: in vivo, po, 0 mg/kg, route gavage, dose level Control; for APTT / Bas / Eos / Fbg / Hb / Ht / Lym / MCH / MCHC / MCV / Mono / Neu / PT / Plat / RBC / Ret / WBC: tissue Blood; for KIDNEY_L / KIDNEY_R / KIDNEY_TOTAL: tissue Kidney; for LIVER: tissue Liver; for A/G / ALP / ALT / AST / BUN / CRE / Ca / Cl / DBIL / GLC / IP / K / LDH / Na / PL / RALB / TBIL / TC / TG / TP / gamma-GTP: tissue Plasma

CCOC(=O)[C@H](CCc1ccccc1)N[C@@H](C)C(=O)N1CCC[C@H]1C(=O)O
TERMINAL_BW (72 h, time 3 day): 253.2 g
APTT (72 h, time 3 day): 16 s
Bas (72 h, time 3 day): 0%
Eos (72 h, time 3 day): 1%
Fbg (72 h, time 3 day): 242 mg/dL
Hb (72 h, time 3 day): 13.2 g/dL
Ht (72 h, time 3 day): 40.1%
Lym (72 h, time 3 day): 73.6%
MCH (72 h, time 3 day): 21 pg
MCHC (72 h, time 3 day): 32.9%
MCV (72 h, time 3 day): 63.9 fL
Mono (72 h, time 3 day): 7.8%
Neu (72 h, time 3 day): 17.4%
PT (72 h, time 3 day): 11.8 s
Plat (72 h, time 3 day): 123.1 x10_4/uL
RBC (72 h, time 3 day): 627.6 x10_4/ul
Ret (72 h, time 3 day): 6.6%
WBC (72 h, time 3 day): 111.6 x10_2/uL
KIDNEY_L (72 h, time 3 day): 1.1 g
KIDNEY_R (72 h, time 3 day): 1.1 g
KIDNEY_TOTAL (72 h, time 3 day): 2.2 g
LIVER (72 h, time 3 day): 12.4 g
A/G (72 h, time 3 day): 1.8
ALP (72 h, time 3 day): 993.8 IU/L
ALT (72 h, time 3 day): 38.6 IU/L
AST (72 h, time 3 day): 63.4 IU/L
BUN (72 h, time 3 day): 19 mg/dL
CRE (72 h, time 3 day): 0.5 mg/dL
Ca (72 h, time 3 day): 11 mg/dL
Cl (72 h, time 3 day): 105 meq/L
DBIL (72 h, time 3 day): 0.022 mg/dL
GLC (72 h, time 3 day): 209.8 mg/dL
IP (72 h, time 3 day): 9 mg/dL
K (72 h, time 3 day): 4.7 meq/L
LDH (72 h, time 3 day): 82.2 IU/L
Na (72 h, time 3 day): 141.4 meq/L
PL (72 h, time 3 day): 149.6 mg/dL
RALB (72 h, time 3 day): 3.8 g/dL
TBIL (72 h, time 3 day): 0.4 mg/dL
TC (72 h, time 3 day): 81 mg/dL
TG (72 h, time 3 day): 114.6 mg/dL
TP (72 h, time 3 day): 5.9 g/dL
gamma-GTP (72 h, time 3 day): 1.2 IU/L
TERMINAL_BW ([…], time 7 day): 279.2 g
TERMINAL_BW ([…], time 14 day): 338.3 g
TERMINAL_BW ([…], time 28 day): 401.8 g
APTT ([…], time 7 day): 16.4 s
Bas ([…], time 7 day): 0%
Eos ([…], time 7 day): 1.2%
Fbg ([…], time 7 day): 227.8 mg/dL
Hb ([…], time 7 day): 13.9 g/dL
Ht ([…], time 7 day): 41.9%
Lym ([…], time 7 day): 78.8%
MCH ([…], time 7 day): 21.4 pg
MCHC ([…], time 7 day): 33.3%
MCV ([…], time 7 day): 64.6 fL
Mono ([…], time 7 day): 6%
Neu ([…], time 7 day): 14%
PT ([…], time 7 day): 11.6 s
Plat ([…], time 7 day): 121.8 x10_4/uL
RBC ([…], time 7 day): 649.6 x10_4/ul
Ret ([…], time 7 day): 6.5%
WBC ([…], time 7 day): 122 x10_2/uL
APTT ([…], time 14 day): 16.5 s
Bas ([…], time 14 day): 0%
Eos ([…], time 14 day): 1%
Fbg ([…], time 14 day): 232.8 mg/dL
Hb ([…], time 14 day): 13.9 g/dL
Ht ([…], time 14 day): 41.7%
Lym ([…], time 14 day): 79.2%
MCH ([…], time 14 day): 20.6 pg
MCHC ([…], time 14 day): 33.3%
MCV ([…], time 14 day): 61.8 fL
Mono ([…], time 14 day): 5.8%
Neu ([…], time 14 day): 13.4%
PT ([…], time 14 day): 11.4 s
Plat ([…], time 14 day): 115 x10_4/uL
RBC ([…], time 14 day): 675.8 x10_4/ul
Ret ([…], time 14 day): 4.1%
WBC ([…], time 14 day): 143.8 x10_2/uL
APTT ([…], time 28 day): 17.7 s
Bas ([…], time 28 day): 0%
Eos ([…], time 28 day): 1.2%
Fbg ([…], time 28 day): 249 mg/dL
Hb ([…], time 28 day): 15.3 g/dL
Ht ([…], time 28 day): 46.4%
Lym ([…], time 28 day): 80%
MCH ([…], time 28 day): 19.3 pg
MCHC ([…], time 28 day): 33%
MCV ([…], time 28 day): 58.3 fL
Mono ([…], time 28 day): 6%
Neu ([…], time 28 day): 12.6%
PT ([…], time 28 day): 11.6 s
Plat ([…], time 28 day): 107.8 x10_4/uL
RBC ([…], time 28 day): 797.4 x10_4/ul
Ret ([…], time 28 day): 3.1%
WBC ([…], time 28 day): 125.5 x10_2/uL
KIDNEY_L ([…], time 7 day): 1.2 g
KIDNEY_R ([…], time 7 day): 1.2 g
KIDNEY_TOTAL ([…], time 7 day): 2.4 g
KIDNEY_L ([…], time 14 day): 1.3 g
KIDNEY_R ([…], time 14 day): 1.3 g
KIDNEY_TOTAL ([…], time 14 day): 2.6 g
KIDNEY_L ([…], time 28 day): 1.4 g
KIDNEY_R ([…], time 28 day): 1.4 g
KIDNEY_TOTAL ([…], time 28 day): 2.8 g
LIVER ([…], time 7 day): 14 g
LIVER ([…], time 14 day): 15.8 g
LIVER ([…], time 28 day): 16.1 g
A/G ([…], time 7 day): 2.1
ALP ([…], time 7 day): 778.4 IU/L
ALT ([…], time 7 day): 37.8 IU/L
AST ([…], time 7 day): 62 IU/L
BUN ([…], time 7 day): 18.2 mg/dL
CRE ([…], time 7 day): 0.5 mg/dL
Ca ([…], time 7 day): 10.7 mg/dL
Cl ([…], time 7 day): 106 meq/L
DBIL ([…], time 7 day): 0.002 mg/dL
GLC ([…], time 7 day): 207 mg/dL
IP ([…], time 7 day): 8.6 mg/dL
K ([…], time 7 day): 5 meq/L
LDH ([…], time 7 day): 89.2 IU/L
Na ([…], time 7 day): 140.2 meq/L
PL ([…], time 7 day): 157.4 mg/dL
RALB ([…], time 7 day): 4 g/dL
TBIL ([…], time 7 day): 0.4 mg/dL
TC ([…], time 7 day): 78.2 mg/dL
TG ([…], time 7 day): 130.2 mg/dL
TP ([…], time 7 day): 5.9 g/dL
gamma-GTP ([…], time 7 day): 1.6 IU/L
A/G ([…], time 14 day): 1.6
ALP ([…], time 14 day): 684 IU/L
ALT ([…], time 14 day): 31 IU/L
AST ([…], time 14 day): 58.2 IU/L
BUN ([…], time 14 day): 19.6 mg/dL
CRE ([…], time 14 day): 0.6 mg/dL
Ca ([…], time 14 day): 10.9 mg/dL
Cl ([…], time 14 day): 106.4 meq/L
DBIL ([…], time 14 day): 0 mg/dL
GLC ([…], time 14 day): 209.6 mg/dL
IP ([…], time 14 day): 8 mg/dL
K ([…], time 14 day): 4.4 meq/L
LDH ([…], time 14 day): 105.2 IU/L
Na ([…], time 14 day): 140 meq/L
PL ([…], time 14 day): 162.2 mg/dL
RALB ([…], time 14 day): 3.9 g/dL
TBIL ([…], time 14 day): 0.3 mg/dL
TC ([…], time 14 day): 77 mg/dL
TG ([…], time 14 day): 172 mg/dL
TP ([…], time 14 day): 6.2 g/dL
gamma-GTP ([…], time 14 day): 1.4 IU/L
A/G ([…], time 28 day): 1.9
ALP ([…], time 28 day): 643.2 IU/L
ALT ([…], time 28 day): 29.2 IU/L
AST ([…], time 28 day): 54.2 IU/L
BUN ([…], time 28 day): 19.2 mg/dL
CRE ([…], time 28 day): 0.7 mg/dL
Ca ([…], time 28 day): 10.7 mg/dL
Cl ([…], time 28 day): 107.2 meq/L
DBIL ([…], time 28 day): 0.036 mg/dL
GLC ([…], time 28 day): 202.6 mg/dL
IP ([…], time 28 day): 7 mg/dL
K ([…], time 28 day): 4.5 meq/L
LDH ([…], time 28 day): 61 IU/L
Na ([…], time 28 day): 140.2 meq/L
PL ([…], time 28 day): 145 mg/dL
RALB ([…], time 28 day): 4 g/dL
TBIL ([…], time 28 day): 0.3 mg/dL
TC ([…], time 28 day): 66.4 mg/dL
TG ([…], time 28 day): 128.2 mg/dL
TP ([…], time 28 day): 6.2 g/dL
gamma-GTP ([…], time 28 day): 1.4 IU/L
